Reference: US9303016B2, “Derivatives of aza adamantane and uses thereof” (CONNEXIOS LIFE SCIENCES PVT. LTD., priority 2011, dated 2016)

Biological target: T1, human full length HSD11β1 (Homo sapiens, UniProt P28845)
T1 construct: transient expression of human full length HSD11β1 expression vector; host or cells: CHO cells, transient transfection
Assay: In Vitro HSD11β1 Inhibition Assay
Format: cell-based
Details: CHO cells transiently expressing human HSD11β1; 200 nM cortisone+500 uM NADPH overnight; cortisone to cortisol by LC/MS-MS; read-out: 11βHSD1 (IC50)
Method in brief: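 Whole-cell assay in CHO cells transiently transfected with full-length human HSD11β1, re-seeded 24 h after transfection. Cells incubated overnight with 200 nM cortisone plus 500 uM NADPH, with or without inhibitor. Cortisone-to-cortisol conversion measured by LC/MS-MS; IC50 (nM) from an 8-point log concentration-inhibition curve.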

T1 sequence (P28845 whole entry): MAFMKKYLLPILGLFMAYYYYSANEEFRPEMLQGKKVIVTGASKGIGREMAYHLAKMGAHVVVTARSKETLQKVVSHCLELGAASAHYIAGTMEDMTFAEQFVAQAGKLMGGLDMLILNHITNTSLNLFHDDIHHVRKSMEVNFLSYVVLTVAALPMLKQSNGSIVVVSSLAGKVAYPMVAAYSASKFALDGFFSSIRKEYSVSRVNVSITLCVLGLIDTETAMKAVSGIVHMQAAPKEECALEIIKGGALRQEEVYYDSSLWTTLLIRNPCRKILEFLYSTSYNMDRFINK

| SMILES | IC50 [nM] |
| --- | --- |
| Cc1ccc2[nH]cc(C(C)CC(=O)N3C4CC5CC3CC(F)(C5)C4)c2c1C (stereo not shown) [Compound 176, 3-(4,5-dimethyl-1H-indol-3-yl)-1-(5-fluoro-2-azatricyclo[3.3.1.1^3,7]dec-2-yl)butan-1-one] | > 250 |
| CC(CC(=O)N1C2CC3CC1CC(O)(C3)C2)c1c[nH]c2cccc(N3CCCCC3)c12 (stereo not shown) [Compound 180, 1-(5-hydroxy-2-azatricyclo[3.3.1.1^3,7]dec-2-yl)-3-[4-(piperidin-1-yl)-1H-indol-3-yl]butan-1-one] | > 250 |
| CC(C)Oc1cccc2[nH]cc(C(C)CC(=O)N3C4CC5CC(C4)CC3C5)c12 (stereo not shown) [Compound 181, 1-(2-azatricyclo[3.3.1.1^3,7]dec-2-yl)-3-[4-(propan-2-yloxy)-1H-indol-3-yl]butan-1-one] | > 250 |
| CC(C)Oc1cccc2[nH]cc(C(C)CC(=O)N3C4CC5CC3CC(F)(C5)C4)c12 (stereo not shown) [Compound 182, 1-(5-fluoro-2-azatricyclo[3.3.1.1^3,7]dec-2-yl)-3-[4-(propan-2-yloxy)-1H-indol-3-yl]butan-1-one] | 150 to 200 |
| CC(CC(=O)N1C2CC3CC(C2)CC1C3)c1c[nH]c2cccc(N3CCC(C(=O)O)CC3)c12 (stereo not shown) [Compound 183, 1-{3-[4-(2-azatricyclo[3.3.1.1^3,7]dec-2-yl)-4-oxobutan-2-yl]-1H-indol-4-yl}piperidine-4-carboxylic acid] | > 250 |
| CC(CC(=O)N1C2CC3CC1CC(C(C)C(=O)O)(C3)C2)c1c[nH]c2cccc(Cl)c12 (stereo not shown) [Compound 186, 2-{2-[3-(4-chloro-1H-indol-3-yl)butanoyl]-2-azatricyclo[3.3.1.1^3,7]dec-5-yl}propanoic acid] | > 250 |
| CC(CC(=O)N1C2CC3CC1CC(O)(C3)C2)c1c[nH]c2cccc(-c3ccsc3)c12 (stereo not shown) [Compound 187, 1-(5-hydroxy-2-azatricyclo[3.3.1.1^3,7]dec-2-yl)-3-[4-(thiophen-3-yl)-1H-indol-3-yl]butan-1-one] | 100 to 150 |
| CC(CC(=O)N1C2CC3CC1CC(O)(C3)C2)c1nc2cc(Cl)ccc2s1 (stereo not shown) [Compound 190, 3-(5-chloro-1,3-benzothiazol-2-yl)-1-(5-hydroxy-2-azatricyclo[3.3.1.1^3,7]dec-2-yl)butan-1-one] | 150 to 200 |
| CC(CC(=O)N1C2CC3CC1CC(C#N)(C3)C2)c1nc2cc(Cl)ccc2s1 (stereo not shown) [Compound 191, 2-[3-(5-chloro-1,3-benzothiazol-2-yl)butanoyl]-2-azatricyclo[3.3.1.1^3,7]decane-5-carbonitrile] | > 250 |
| CC(CC(=O)N1C2CC3CC1CC(O)(C3)C2)c1nc2ccc(Cl)cc2s1 (stereo not shown) [Compound 192, 3-(6-chloro-1,3-benzothiazol-2-yl)-1-(5-hydroxy-2-azatricyclo[3.3.1.1^3,7]dec-2-yl)butan-1-one] | < 100 |
| CC(CC(=O)N1C2CC3CC1CC(C(N)=O)(C3)C2)c1nc2ccc(Cl)cc2s1 (stereo not shown) [Compound 196, 2-[3-(6-chloro-1,3-benzothiazol-2-yl)butanoyl]-2-azatricyclo[3.3.1.1^3,7]decane-5-carboxamide] | > 250 |
| CC(CC(=O)N1C2CC3CC1CC(O)(C3)C2)c1c[nH]c2ncc(Cl)c(Cl)c12 (stereo not shown) [Compound 197, 3-(4,5-dichloro-1H-pyrrolo[2,3-b]pyridin-3-yl)-1-(5-hydroxy-2-azatricyclo[3.3.1.1^3,7]dec-2-yl)butan-1-one] | < 100 |
| CC(CC(=O)N1C2CC3CC1CC(O)(C3)C2)c1c[nH]c2ncc(Cl)c(C3CC3)c12 (stereo not shown) [Compound 198, 3-(5-chloro-4-cyclopropyl-1H-pyrrolo[2,3-b]pyridin-3-yl)-1-(5-hydroxy-2-azatricyclo[3.3.1.1^3,7]dec-2-yl)butan-1-one] | < 100 |
| CC(CC(=O)N1C2CC3CC1CC(O)(C3)C2)c1c[nH]c2ncc(C3CC3)c(C3CC3)c12 (stereo not shown) [Compound 201, 3-(4,5-dicyclopropyl-1H-pyrrolo[2,3-b]pyridin-3-yl)-1-(5-hydroxy-2-azatricyclo[3.3.1.1^3,7]dec-2-yl)butan-1-one] | > 250 |
| CC(CC(=O)N1C2CC3CC1CC(O)(C3)C2)c1nc2ccc(Cl)cc2[nH]1 (stereo not shown) [Compound 202, 3-(6-chloro-1H-benzimidazol-2-yl)-1-(5-hydroxy-2-azatricyclo[3.3.1.1^3,7]dec-2-yl)butan-1-one] | > 250 |
| Cc1cccc2c1c(C(C)CC(=O)N1C3CC4CC1CC(O)(C4)C3)cn2C1CC1 (stereo not shown) [Compound 205, 3-(1-cyclopropyl-4-methyl-1H-indol-3-yl)-1-(5-hydroxy-2-azatricyclo[3.3.1.1^3,7]dec-2-yl)butan-1-one] | > 250 |
| Cc1cccc2c1c(C(C)CC(=O)N1C3CC4CC1CC(O)(C4)C3)cn2C (stereo not shown) [Compound 206, 3-(1,4-dimethyl-1H-indol-3-yl)-1-(5-hydroxy-2-azatricyclo[3.3.1.1^3,7]dec-2-yl)butan-1-one] | > 250 |
| CC(CC(=O)N1C2CC3CC1CC(O)(C3)C2)c1cn(C)c2cccc(Cl)c12 (stereo not shown) [Compound 207, 3-(4-chloro-1-methyl-1H-indol-3-yl)-1-(5-hydroxy-2-azatricyclo[3.3.1.1^3,7]dec-2-yl)butan-1-one] | 100 to 150 |

The remaining lines, values ahead:

| IC50 [nM] | SMILES |
| --- | --- |
| 100 to 150 | CC(CC(=O)N1C2CC3CC1CC(O)(C3)C2)c1c[nH]c2ccc(-c3ccco3)c(Cl)c12 (stereo not shown) [Compound 208, 3-[4-chloro-5-(furan-2-yl)-1H-indol-3-yl]-1-(5-hydroxy-2-azatricyclo[3.3.1.1^3,7]dec-2-yl)butan-1-one] |
| 200 to 250 | COc1c(C)ccc2[nH]cc(C(C)CC(=O)N3C4CC5CC3CC(O)(C5)C4)c12 (stereo not shown) [Compound 209, 1-(5-hydroxy-2-azatricyclo[3.3.1.1^3,7]dec-2-yl)-3-(4-methoxy-5-methyl-1H-indol-3-yl)butan-1-one] |
| 150 to 200 | Cc1ccc2c(c1Cl)C(C(C)CC(=O)N1C3CC4CC1CC(O)(C4)C3)C(=O)N2 (stereo not shown) [Compound 211, 4-chloro-3-[4-(5-hydroxy-2-azatricyclo[3.3.1.1^3,7]dec-2-yl)-4-oxobutan-2-yl]-5-methyl-1,3-dihydro-2H-indol-2-one] |
| 100 to 150 | CC(CC(=O)N1C2CC3(O)CC1CC(F)(C2)C3)c1c[nH]c2cccc(C3CC3)c12 (stereo not shown) [Compound 213, 3-(4-cyclopropyl-1H-indol-3-yl)-1-(5-fluoro-7-hydroxy-2-azatricyclo[3.3.1.1^3,7]dec-2-yl)butan-1-one] |
| > 250 | CC(CC(=O)N1C2CC3CC1CC(CC(=O)O)(C3)C2)c1c[nH]c2cccc(-c3ccc(F)o3)c12 (stereo not shown) [Compound 215, 2-(2-(3-(4-(5-fluorofuran-2-yl)-1H-indol-3-yl)butanoyl)-2-azaadamantan-5-yl)acetic acid] |
| > 250 | Cc1cccc2c1c(C(C)CC(=O)N1C3CC4CC1CC(O)(C4)C3)cn2S(=O)(=O)c1cccc2cccnc12 (stereo not shown) [Compound 216, 1-(5-hydroxy-2-azaadamantan-2-yl)-3-(4-methyl-1-(quinolin-8-ylsulfonyl)-1H-indol-3-yl)butan-1-one] |
| < 100 | Cc1ccc2[nH]cc(C(C)CC(=O)N3C4CC5(C)CC3CC(O)(C4)C5)c2c1Cl (stereo not shown) [Compound 219, 3-(4-chloro-5-methyl-1H-indol-3-yl)-1-(5-hydroxy-7-methyl-2-azaadamantan-2-yl)butan-1-one] |
| > 250 | CC(CC(=O)N1C2CC3CC1CC(O)(C3)C2)c1c(C#N)[nH]c2cccc(C3CC3)c12 (stereo not shown) [Compound 220, 4-cyclopropyl-3-(4-(5-hydroxy-2-azaadamantan-2-yl)-4-oxobutan-2-yl)-1H-indole-2-carbonitrile] |
| > 250 | Cc1ccc2[nH]cc(C(C)CC(=O)N3C4CC5CC3CC(C#N)(C5)C4)c2c1C (stereo not shown) [Compound 221, 2-(3-(4,5-dimethyl-1H-indol-3-yl)butanoyl)-2-azaadamantane-5-carbonitrile] |
| > 250 | CC(CC(=O)N1C2CC3CC1CC(C(=O)O)(C3)C2)c1c[nH]c2cccc(-c3ccco3)c12 (stereo not shown) [Compound 222, 2-(3-(4-(furan-2-yl)-1H-indol-3-yl)butanoyl)-2-azaadamantane-5-carboxylic acid] |
| > 250 | COc1ccc2[nH]cc(C(C)CC(=O)N3C4CC5CC3CC(F)(C5)C4)c2c1 (stereo not shown) [Compound 224, 1-(5-fluoro-2-azaadamantan-2-yl)-3-(5-methoxy-1H-indol-3-yl)butan-1-one] |
| > 250 | CC(CC(=O)N1C2CC3CC1CC(Br)(C3)C2)c1c[nH]c2ccc(OS(=O)(=O)C(F)(F)F)cc12 (stereo not shown) [Compound 225, 3-(4-(5-bromo-2-azaadamantan-2-yl)-4-oxobutan-2-yl)-1H-indol-5-yl trifluoromethanesulfonate] |
| < 100 | COc1ccc2[nH]cc(C(C)CC(=O)N3C4CC5CC(C4)CC3C5)c2c1 (stereo not shown) [Compound 226, 1-(2-azaadamantan-2-yl)-3-(5-methoxy-1H-indol-3-yl)butan-1-one] |
| < 100 | COc1ccc2[nH]cc(C(C)CC(=O)N3C4CC5CC3CC(C)(C5)C4)c2c1 (stereo not shown) [Compound 227, 3-(5-methoxy-1H-indol-3-yl)-1-(5-methyl-2-azaadamantan-2-yl)butan-1-one] |
| > 250 | CC(CC(=O)N1C2CC3CC(C2)CC1C3)c1c[nH]c2ccc(OS(C)(=O)=O)cc12 (stereo not shown) [Compound 229, 3-(4-(2-azaadamantan-2-yl)-4-oxobutan-2-yl)-1H-indol-5-yl methanesulfonate] |
| > 250 | COc1ccc2[nH]cc(C(C)CC(=O)N3C4CC5CC3CC(C#N)(C5)C4)c2c1 (stereo not shown) [Compound 230, 2-(3-(5-methoxy-1H-indol-3-yl)butanoyl)-2-azaadamantane-5-carbonitrile] |
| > 250 | O=C(CCc1c[nH]c2ccccc12)N1C2CC3CC(C2)CC1C3 [Example 1, 1-(2-azatricyclo[3.3.1.1^3,7]dec-2-yl)-3-(1H-indol-3-yl)propan-1-one] |
| 100 to 150 | Cc1cccc2[nH]cc(CCC(=O)N3C4CC5CC(C4)CC3C5)c12 [Example 2, 1-(2-azatricyclo[3.3.1.1^3,7]dec-2-yl)-3-(4-methyl-1H-indol-3-yl)propan-1-one] |
| > 250 | Cc1cccc2c1c(CCC(=O)N1C3CC4CC(C3)CC1C4)cn2C [Example 3, 1-(2-azatricyclo[3.3.1.1^3,7]dec-2-yl)-3-(1,4-dimethyl-1H-indol-3-yl)propan-1-one] |
